The record followed here is patent publication US11332470B2, “CXCR4 inhibitors and uses thereof” (X4 Pharmaceuticals, Inc., priority 2016, dated 2022).

Structures are written as SMILES. Bounds are passed on as bounds.

Data set [1] concerns the target T1, CXCR4 (U87.CXCR4 cells) (Homo sapiens, UniProt P61073).
T1 construct: expressed in transfected cells; host or cells: U87 (U87.CXCR4)
As to the kind of experiment: Intracellular CXCL-12-induced calcium mobilization assay (FLIPR). The class given is cell-based. The following applies: CXCL-12 25-50 ng/mL, read-out: IC50 CXCL-12 Ca2+ flux U87.CXCR4+. Here is the method: Intracellular CXCL-12-Induced Calcium Mobilization Assay
Intracellular calcium mobilization induced by chemokines or chemokine-derived peptides were evaluated using a calcium responsive fluorescent probe and a FLIPR system. The CXCR-4 transfected U87 cell line (U87.CXCR4) cells were seeded in gelatine-coated black-wall 96-well plates at 20,000 cells per well and incubated for 12 hours. Cells were then loaded with the fluorescent calcium probe Fluo-2 acetoxymethyl at 4 μM final concentration in assay buffer (Hanks' balanced salt solution with 20 mM HEPES buffer and 0.2% bovine serum albumin, pH 7.4) for 45 min at 37° C. The intracellular calcium mobilization induced by the CXCL-12 (25-50 ng/mL) was then measured at 37° C. by monitoring the fluorescence as a function of time in all the wells simultaneously using a fluorometric imaging plate reader (FLIPR Tetra, Molecular Devices).

Data set [2] can be described thus: in vitro. The following applies: human, Caco-2, pH 7.4. The method, then:
The goal of this assay was to evaluate the intestinal absorption potential of drug candidates using Caco-2 cell lines.
1. Prewarm Prewarm HBSS Buffer in 37° C. water bath
2. Sonicate Take compounds from −20° C., sonicate for a few minutes (no less than 1 minute)
• Donor solution buffer: For A-to-B Direction: HBSS buffer with 0.3% DMSO and 5 μM LY: add 150 μL DMSO and 50 μL LY (5 mM) into 50 ml HBSS buffer (pH 7.4). HBSS buffer with 0.1% DMSO and 5 μM LY: add 50 μL DMSO and 50 μL LY (5 mM) into 50 mL HBSS buffer (pH 7.4). For B-to-A Direction: HBSS buffer with 0.3% DMSO: add 150 μL DMSO into 50 ml HBSS buffer (pH 7.4). HBSS buffer with 0.1% DMSO: add 50 μL DMSO into 50 ml HBSS buffer (pH 7.4). Receiver Solution Buffer: For A-to-B Direction: Prepare HBSS buffer with 0.4% DMSO: add 200 μL DMSO into 50 ml HBSS buffer (pH 7.4). For B-to-A Direction: Prepare HBSS buffer with 0.4% DMSO and 5 μM LY: add 200 μL DMSO and 50 μL LY (5 mM) into 50 ml HBSS buffer (pH 7.4).
4. Measure TEER Take cell culture plate out of incubator, wash the cell monolayers with HBSS buffer, and then measure TEER values at Rm temperature. 5. Centrifuge Centrifuge the compound solution (from step 3) at 4000 rpm for 5 min before loading to donor chambers. 6. Dosing Add solution based on the volumes listed in the following table (make sure to take extra 100 μL of donor sample for TO as Backup).
7. Apical LYT0 samples To determine LY concentration in the apical chamber, take 100 μL sample from apical chambers into an opaque plate for LYT0. 8. Prewarm Prewarm apical and basolateral plates at 37° C. for about 5 min, then begin transport by placing the apical plate onto basolateral plate. 9. Incubation Keep the plates in incubator at 37° C. for 90 min. 10.
Prepare Working Solution in MeOH/H2O (1:1)
• Prepare 1×solution: 3 μL (20×)+57 μL of 0.4% DMSO HBSS+60 μL ACN with IS (Osalmid or Imipramine)−120 μL (1×) 11. Transport termination Separate the apical plate from the basolateral plate after 90-min incubation. 12. Measure LY Take 100 μL samples from basolateral plate to an opaque plate as LYT90. 13. Measure LY concentrations for LYT0 and LYT90 by Fluorometer (at excitation of 485 nm/emission of 535 nm). 14.
Study details: Test concentration 10 μM
Test systems: Caco-2/HBSS solution
Incubation conditions: 0, 90 min at 37° C.
Sample size: Duplicates (n=2)
Bioanalytical method: LC-MS/MS
For Millicell-24 Cell Culture Plates: surface area of the membrane=0.7 cm^2, VA=0.8 mL (A-to-B) or 0.4 mL (B-to-A)
The compound numbers correspond to the compound numbers in Table 1.

Data set [3] deals with T2, CXCR4 (Jurkat cells expressing CXCR4) (Homo sapiens, UniProt P61073).
T2 construct: Jurkat cells expressing CXCR4; endogenous in cells; host or cells: Jurkat
As to the kind of experiment: Chemokine (CXCL12-AF647) binding inhibition assay. The following applies: CXCL12-AF647 25 ng/mL, read-out: IC50 CXCL-12 binding Jurkat. Here is the method: Chemokine (CXCL12-AF647) Binding Inhibition Assay
Jurkat cells expressing CXCR4 were washed once with assay buffer (Hanks' balanced salt solution with 20 mM HEPES buffer and 0.2% bovine serum albumin, pH 7.4) and then incubated for 15 min at room temperature with the test compounds diluted in assay buffer at dose-dependent concentrations. Subsequently, CXCL12-AF647 (25 ng/mL) was added to the compound-incubated cells. The cells were incubated for 30 min at room temperature. Thereafter, the cells were washed twice in assay buffer, fixed in 1% paraformaldehyde in PBS, and analyzed on the FL4 channel of a FACSCalibur flow cytometer equipped with a 635-nm red diode laser (Becton Dickinson, San Jose, Calif., USA).
The percentages of inhibition of CXCL12-AF647 binding were calculated according to the formula: [1−((MFI−MFINC)/(MFIPC−MFINC))]×100 where MFI is the mean fluorescence intensity of the cells incubated with CXCL12-AF647 in the presence of the inhibitor, MFINC is the mean fluorescence intensity measured in the negative control (i.e., autofluorescence of unlabeled cells), and MFIPC is the mean fluorescence intensity of the positive control (i.e., cells exposed to CXCL12-AF647 alone).

T1 sequence (P61073 whole entry): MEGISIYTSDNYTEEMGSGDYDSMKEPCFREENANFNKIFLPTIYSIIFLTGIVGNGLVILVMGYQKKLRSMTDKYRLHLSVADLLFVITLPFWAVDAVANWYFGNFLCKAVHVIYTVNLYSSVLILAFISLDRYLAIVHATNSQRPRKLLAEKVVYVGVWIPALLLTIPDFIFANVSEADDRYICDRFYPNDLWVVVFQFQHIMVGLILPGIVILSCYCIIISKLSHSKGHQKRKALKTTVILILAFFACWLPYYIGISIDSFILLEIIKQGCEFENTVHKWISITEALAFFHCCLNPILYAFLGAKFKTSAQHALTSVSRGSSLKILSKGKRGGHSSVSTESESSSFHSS
T2 sequence (P61073 whole entry): as above

`Cc1cccnc1C1CCCCN1Cc1cn2c(N3CCN(C)CC3)cccc2n1` (stereo not drawn) [Compound I-1, 5-(4-methylpiperazin-1-yl)-2-((2-(3-methylpyridin-2-yl)piperidin-1-yl)methyl)imidazo[1,2-a]-pyridine]: the IC50 in data set [1] fell in the range of 0.1 to 1 µM. In addition, in data set [2], the Papp A→B at 90 min, 10 μM was 0.1 to 10 ×10⁻⁶ cm/s; the Papp B→A at 90 min, 10 μM was in the range of 10 to 30 ×10⁻⁶ cm/s; the efflux ratio at 90 min, 10 μM was 0.1 to 10. Besides, the IC50 in data set [3] was 1e-05 to 0.1 µM.
In the same order, the values of `Cc1cccnc1C1CCCCN1Cc1ccccc1-n1cccn1` (stereo not drawn) [Compound I-2, 2-(1-(2-(1H-pyrazol-1-yl)benzyl)piperidin-2-yl)-3-methylpyridine] are not below 1 µM, more than 30 ×10⁻⁶ cm/s, more than 30 ×10⁻⁶ cm/s, 0.1 to 10 and not below 1 µM.
With `CN1CCN(c2cccc3nc(C4CCCCN4Cc4ccccc4-n4cccn4)[nH]c23)CC1` (stereo not drawn) [Compound I-3, 2-(1-(2-(1H-pyrazol-1-yl)benzyl)piperidin-2-yl)-7-(4-methylpiperazin-1-yl)-1H-benzo[d]imidazole], the IC50 in data set [1] and in data set [3] was not below 1 µM throughout.
In the case of `Cc1cccnc1C1CCCN1Cc1ccccc1-n1cccn1` (stereo not drawn) [Compound I-4, 2-(1-(2-(1H-pyrazol-1-yl)benzyl)pyrrolidin-2-yl)-3-methylpyridine], the IC50 in data set [1] was in the range of 0.1 to 1 µM. Also, in data set [2], the Papp A→B at 90 min, 10 μM was more than 30 ×10⁻⁶ cm/s; the Papp B→A at 90 min, 10 μM was 10 to 30 ×10⁻⁶ cm/s; the efflux ratio at 90 min, 10 μM fell in the range of 0.1 to 10. In addition, in data set [3], the IC50 is not below 1 µM.
In the case of `CN1CCN(c2cccc3[nH]c(C4CCCN4Cc4ccccc4-n4cccn4)nc23)CC1` (stereo not drawn) [Compound I-5, 2-(1-(2-(1H-pyrazol-1-yl)benzyl)pyrrolidin-2-yl)-7-(4-methylpiperazin-1-yl)-1H-benzo[d]imidazole], the IC50 in data set [1] and in data set [3] was not below 1 µM each time.
Turning to `Cc1cccnc1C1CCCN1Cc1cn2c(N3CCN(C)CC3)cccc2n1` (stereo not drawn) [Compound I-6, 5-(4-methylpiperazin-1-yl)-2-((2-(3-methylpyridin-2-yl)pyrrolidin-1-yl)methyl)imidazo[1,2-a]-pyridine], the IC50 in data set [1] was 1e-05 to 0.1 µM. In data set [2], the Papp A→B at 90 min, 10 μM is 0.1 to 10 ×10⁻⁶ cm/s; the apparent permeability from basolateral to apical (Papp B→A) at 90 min, 10 μM fell in the range of 10 to 30 ×10⁻⁶ cm/s; the efflux ratio at 90 min, 10 μM was 10 to 30. Besides, in data set [3], the IC50 fell in the range of 1e-05 to 0.1 µM.
In the case of `Cc1cccnc1C1CCCN1Cc1nc2cccc(N3CCN(C)CC3)n2c1Br` (stereo not drawn) [Compound I-7, 3-bromo-5-(4-methylpiperazin-1-yl)-2-((2-(3-methylpyridin-2-yl)pyrrolidin-1-yl)methyl)imi-dazo[1,2-a]pyridine], the IC50 in data set [1] fell in the range of 0.1 to 1 µM. Moreover, in data set [2], the Papp A→B at 90 min, 10 μM lay within 0.1 to 10 ×10⁻⁶ cm/s; the Papp B→A at 90 min, 10 μM was 10 to 30 ×10⁻⁶ cm/s; the efflux ratio at 90 min, 10 μM lay within 0.1 to 10. The IC50 in data set [3] lay within 0.1 to 1 µM.
As to `Cc1cccnc1C1CCCN1Cc1ncccc1-n1cccn1` (stereo not drawn) [Compound I-66], the IC50 in data set [1] was not below 1 µM; in data set [3], 0.1 to 1 µM.
In the same order, the values of `c1ccc(C2CCCN2Cc2ncccc2-n2cccn2)nc1` (stereo not drawn) [Compound I-67] are not below 1 µM and not below 1 µM.
In the same order, the values of `Cc1cccnc1C1CCCN1Cc1nc2cccc(N3CCN(C)CC3)c2o1` (stereo not drawn) [Compound I-71] are not below 1 µM and 0.1 to 1 µM.
In the same order, the values of `Cc1cccnc1C1CCCN1Cc1nc2c(N3CCN(C)CC3)cccc2o1` (stereo not drawn) [Compound I-72] are not below 1 µM and not below 1 µM.
In the case of `Cc1cccnc1C1CCCN1Cc1cc2c(N3CCN(C)CC3)cccc2o1` (stereo not drawn) [Compound I-73], the IC50 in data set [1] is not below 1 µM; in data set [3], 0.1 to 1 µM.
With `Cc1cccnc1C1CCCN1C(=O)c1cn2c(N3CCN(C)CC3)cccc2n1` (stereo not drawn) [Compound I-74], the IC50 in data set [1] and in data set [3] was not below 1 µM in each case.
`Cc1cccnc1CN1CCCC1c1nc2ccccc2n1C1CCN(C)CC1` (stereo not drawn) [Compound I-77]: the IC50 in data set [1] was not below 1 µM; in data set [3] it was 1e-05 to 0.1 µM.
In the same order, the values of `CN1CCC(n2c(C3CCCN3Cc3ccccn3)nc3ccccc32)CC1` (stereo not drawn) [Compound I-78] are not below 1 µM and 1e-05 to 0.1 µM.
In the same order, the values of `Cc1cccnc1C1CCCN1Cc1nc2ccccn2c1CCC#N` (stereo not drawn) [Compound I-81] are not below 1 µM and 0.1 to 1 µM.
In the same order, the values of `Cc1cccnc1C1CCCN1Cc1cccc(C(=O)Nc2ccncc2)n1` (stereo not drawn) [Compound I-90] are not below 1 µM and 0.1 to 1 µM.
Take `OCc1c(CN2CCCC2c2ccccn2)nc2ccccn12` (stereo not drawn) [Compound I-93]: the IC50 in data set [1] is not below 1 µM; in data set [3], 0.1 to 1 µM.
Turning to `c1ccc(C2CCCN2Cc2nc3ccccn3c2COc2cccnc2)nc1` (stereo not drawn) [Compound I-95], the IC50 in data set [1] and in data set [3] was not below 1 µM each time.
Turning to `Cc1cccnc1CN1CCCC1c1nc2ccccn2c1N1CCN(C)CC1` (stereo not drawn) [Compound I-100], the IC50 in data set [1] and in data set [3] was 1e-05 to 0.1 µM in each case.
For the compound `Cc1cccnc1C1CCCN1Cc1nccn1-c1ccccn1` (stereo not drawn) [Compound I-113], the IC50 in data set [1] and in data set [3] was not below 1 µM throughout.
Turning to `Cc1cccnc1C1CCCN1Cc1nccn1-c1cccnc1` (stereo not drawn) [Compound I-114], the concentration for half-maximal inhibition (IC50) in data set [1] is not below 1 µM; in data set [3] it was 0.1 to 1 µM.
In the same order, the values of `Cc1cccnc1C1CCCN1Cc1nccn1-c1ccncc1` (stereo not drawn) [Compound I-115] are not below 1 µM and 0.1 to 1 µM.
Take `Cc1cccnc1C1CCCN1Cc1cccc(CC2CCN(C)CC2)n1` (stereo not drawn) [Compound I-116]: the IC50 in data set [1] and in data set [3] was not below 1 µM each time.
Consider `Cc1cccnc1C1CCCN1Cc1nccn1C(=O)N1CCN(C)CC1` (stereo not drawn) [Compound I-125], for which the IC50 was not below 1 µM in data set [1] and 0.1 to 1 µM in data set [3].
In the same order, the values of `Cc1cccnc1CN1CCCC1c1cn2c(N3CCN(CC(F)(F)F)CC3)cccc2n1` (stereo not drawn) [Compound I-129] are not below 1 µM and not below 1 µM.
With `c1ccc(C2CCCN2Cc2nc3ccccn3c2N2CCN(c3ccncc3)CC2)nc1` (stereo not drawn) [Compound I-133], the IC50 in data set [1] is not below 1 µM; in data set [3] it was 0.1 to 1 µM.

By IC50 is commonly meant the concentration needed to halve the response being measured. A word on the Papp A→B: it is the apparent permeability from the apical to the basolateral side of a cell layer. High values mean fast passage, low ones slow passage. For orientation: Papp B→A means the apparent permeability from the basolateral to the apical side of a cell layer. Usually efflux ratio stands for the permeability from basolateral to apical divided by that in the opposite direction, in the common usage.
